US5466677A, “Dinucleoside phosphinates and their pharmaceutical compositions” (Ciba-Geigy Corporation, priority 1993, dated 1995)

Tests used:
[1] = test system: complementary RNA sequences; assay type: binding; details: for Tm: pH 7; for ΔTm/mod: pH 7.0
[2] = test system: human cytomegalovirus (HCMV) (strain AD 169); assay: plaque-reduction assay, HCMV in human embryonic fibroblasts; assay type: cell-based; details: Human betaherpesvirus 5, Fibroblast; HCMV strain AD 169, human embryonic fibroblasts, 7 to 10 days
Protocol: (§1) Compounds prepared in some of the previous Examples are tested for antiviral activity against herpes simplex virus type 1 (HSV-1) (strain 17i) and human cytomegalovirus (HCMV) (strain AD 169) in vitro. Aqueous solutions of the compounds are prepared at concentrations between 10 mM and 50 mM. The solutions are stored at -70° C. after preparation and thawed prior to use in the antiviral assays. After thawing, the solutions are diluted to the appropriate concentration in the cell-culturemedium without prior filtration.
(§2) In a procedure similar to that described by Tyros et al, J. Antimicrob. Chemother., 8, 65-72 (1981), cell monolayers are infected with 20-200 plaque forming units and after virus adsorption the inoculum is replaced by maintenance medium containing different concentrations of the compound under investigation. Virus spread is prevented by the incorporation of 0.5% low gelling temperature agarose. At the end of a set period (2 or 3 days for HSV and 7 to 10 days for HCMV) monolayers are fixed, stained with methylene blue and plaque numbers determined.

[3] = test system: herpes simplex virus type 1 (HSV-1) (strain 17i); assay: plaque-reduction assay, HSV-1 in Vero cells; assay type: cell-based; details: Human alphaherpesvirus 1, 2 or 3 days
Protocol: as §1, §2

Compound | Tm [1] [°C] | ΔTm/mod [1] [°C] | IC50 [2] [µM] | IC50 [3] [µM]
Example 99: GCG T*TT *TT*T T*TT *TGC G, T*T indicating a unit derived from Compound 81 (hydrolysed) (GCGTTTTTTTTTTGCG; several T*T modified linkages from hydrolysed Compound 81, further chemistry not given here) | 39.6 | -1.8 |  | 
Example 96: CTC GTA CT*T T*TC CGG TCC, T*T units derived from Compound 81 (CTCGTACTTTTCCGGTCC; T*T modified units from Compound 81, chemistry not fully specified) | 58.5 | -1.5 |  | 
CCOP(=O)(CC[C@H]1O[C@@H](n2cc(C)c(=O)[nH]c2=O)C[C@@H]1O)C[C@H]1C[C@H](n2cc(C)c(=O)[nH]c2=O)O[C@@H]1CO[Si](c1ccccc1)(c1ccccc1)C(C)(C)C (stereo partly drawn) [Compound 14] |  |  | > 200 | 20 to 200
CCOP(=O)(CC[C@H]1O[C@@H](n2cc(C)c(=O)[nH]c2=O)C[C@@H]1OC(=O)c1ccccc1)C[C@H]1C[C@H](n2cc(C)c(=O)[nH]c2=O)O[C@@H]1CO[Si](c1ccccc1)(c1ccccc1)C(C)(C)C (stereo partly drawn) [Compound 13] |  |  | 1 to 10 | 5 to 50
Example 89: TTT T*TC TCT CTC TCT, T*T unit derived from Compound 81A (TTTTTCTCTCTCTCT; one T*T dimer with modified linkage from Compound 81A, further chemistry not given here) | 45.7 | -3.3 |  | 
Example 87: TTT T*TC TCT CTC TCT, T*T unit derived from Compound 81 (hydrolysed) (TTTTTCTCTCTCTCT; T*T modified dimer unit from Compound 81 (hydrolysed), chemistry not fully specified) | 45.7 | -2.8 |  | 
Example 95: CTC GTA CT*T T*TC CGG TCC, T*T units derived from Compound 81 (hydrolysed) (CTCGTACTTTTCCGGTCC; two T*T dimers with modified linkage from hydrolysed Compound 81, further chemistry not given here) | 58.2 | -1.6 |  | 
Example 98: CTC GTA CT*T T*TC CGG TCC, T*T units derived from Compound 81B (CTCGTACTTTTCCGGTCC; T*T modified units from Compound 81B, chemistry not fully specified) | 58.8 | -1.3 |  | 
Example 88: TTT T*TC TCT CTC TCT, T*T unit derived from Compound 81 (TTTTTCTCTCTCTCT; one T*T dimer with modified linkage from Compound 81, further chemistry not given here) | 46.8 | -2.2 |  | 
Example 97: CTC GTA CT*T T*TC CGG TCC, T*T units derived from Compound 81A (CTCGTACTTTTCCGGTCC; T*T modified units from Compound 81A, chemistry not fully specified) | 57.9 | -1.8 |  | 
Example 90: TTT T*TC TCT CTC TCT, T*T unit derived from Compound 81B (TTTTTCTCTCTCTCT; one T*T dimer with modified linkage from Compound 81B, further chemistry not given here) | 47.2 | -1.3 |  | 
CCOP(=O)(CC[C@H]1O[C@@H](n2cc(C)c(=O)[nH]c2=O)C[C@@H]1OC(=O)c1ccccc1)C[C@H]1C[C@H](n2cc(C)c(=O)[nH]c2=O)O[C@@H]1CO (stereo partly drawn) [Compound 15] |  |  | > 2 | > 5
